# Laboratory results taken from the supplement of paper PMC10307832.
# Key:
# Test in all cases: relative viability (nuclei count vs DMSO), 5 days (fraction); higher = more cells survive
# Veliparib + Crizotinib = compound: C[C@]1(c2nc3c(C(N)=O)cccc3[nH]2)CCCN1 [Veliparib] + C[C@@H](Oc1cc(-c2cnn(C3CCNCC3)c2)cnc1N)c1c(Cl)ccc(F)c1Cl [Crizotinib] (partner 1 µM)
# Outline: (§1)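 Lung cancer cell lines were seeded in 1536-well plates and dosed by pin tool the next day, with either a single drug or a fixed anchor-drug dose combined with five library-drug doses (not always all listed) spaced in √10 steps. Five days later, one step fixed the cells and stained their nuclei (final 0.05% Triton X-100, 1% formaldehyde, 1 ug/ml Hoechst), and nuclei were counted on 4× images. Relative viability is the nuclei count in treated wells divided by the count in vehicle wells, and each value is the median of duplicate plates.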
# Veliparib + Decitabine = compound: C[C@]1(c2nc3c(C(N)=O)cccc3[nH]2)CCCN1 [Veliparib] + Nc1ncn([C@H]2C[C@H](O)[C@@H](CO)O2)c(=O)n1 [Decitabine] (partner 2 µM)
# Outline: as §1
# [1] = compound: COC1=CC=C(C=C1)CN2C=CC3=C2C=C(C=C3)C(=O)NO + CC(=O)c1c(C)c2cnc(Nc3ccc(N4CCNCC4)cn3)nc2n(C2CCCC2)c1=O [Palbociclib] (partner 0.5 µM)
# Outline: as §1
# [2] = compound: COC1=CC=C(C=C1)CN2C=CC3=C2C=C(C=C3)C(=O)NO + NC(=O)Nc1cc(-c2cccc(F)c2)sc1C(=O)N[C@H]1CCCNC1 [AZD7762] (partner 0.2 µM)
# Outline: as §1
cell line,measurement,setting,value
LXF-289,relative viability,Veliparib + Crizotinib; first compound 0.02 µM,0.784
same,relative viability,Veliparib + Crizotinib; first compound 0.06325 µM,0.777
same,relative viability,Veliparib + Crizotinib; first compound 0.2 µM,0.818
same,relative viability,Veliparib + Crizotinib; first compound 0.6325 µM,0.727
same,relative viability,Veliparib + Crizotinib; first compound 2 µM,0.83
same,relative viability,Veliparib + Decitabine; first compound 0.02 µM,0.362
same,relative viability,Veliparib + Decitabine; first compound 0.06325 µM,0.311
same,relative viability,Veliparib + Decitabine; first compound 0.2 µM,0.342
same,relative viability,Veliparib + Decitabine; first compound 0.6325 µM,0.283
same,relative viability,Veliparib + Decitabine; first compound 2 µM,0.332
same,relative viability,[1]; first compound 0.253 µM,0.588
same,relative viability,[1]; first compound 0.8 µM,0.609
same,relative viability,[1]; first compound 2.53 µM,0.607
same,relative viability,[1]; first compound 8 µM,0.581
same,relative viability,[2]; first compound 0.253 µM,1.06
same,relative viability,[2]; first compound 0.8 µM,1.04
same,relative viability,[2]; first compound 2.53 µM,1.07
same,relative viability,[2]; first compound 8 µM,1.02
NCI-H460,relative viability,Veliparib + Crizotinib; first compound 0.06325 µM,0.869
same,relative viability,Veliparib + Crizotinib; first compound 0.2 µM,0.934
same,relative viability,Veliparib + Crizotinib; first compound 0.6325 µM,0.734
same,relative viability,Veliparib + Crizotinib; first compound 2 µM,1.02
same,relative viability,Veliparib + Decitabine; first compound 0.02 µM,0.407
same,relative viability,Veliparib + Decitabine; first compound 0.06325 µM,0.255
same,relative viability,Veliparib + Decitabine; first compound 0.2 µM,0.203
same,relative viability,Veliparib + Decitabine; first compound 0.6325 µM,0.212
same,relative viability,Veliparib + Decitabine; first compound 2 µM,0.132
same,relative viability,[1]; first compound 0.08 µM,0.201
same,relative viability,[1]; first compound 0.253 µM,0.173
same,relative viability,[1]; first compound 0.8 µM,0.0964
same,relative viability,[1]; first compound 2.53 µM,0.186
same,relative viability,[1]; first compound 8 µM,0.108
same,relative viability,[2]; first compound 0.08 µM,0.536
same,relative viability,[2]; first compound 0.253 µM,0.485
same,relative viability,[2]; first compound 0.8 µM,0.588
same,relative viability,[2]; first compound 2.53 µM,0.614
same,relative viability,[2]; first compound 8 µM,0.515
